Test results taken from ChEMBL document CHEMBL6092220 (J Med Chem, 2024).
Activity calls are given as the source filed them. The calls are words filed in the database; no cut-off is given here.

Tests used:
[1] = biological target: Protein cereblon/Signal transducer and activator of transcription 3 (Homo sapiens, UniProt P40763+Q96SW2, K658R); assay: (§1) PROTAC activity at STAT3/CRBN in human Pfeiffer cells transfected with STAT3 K658R mutant assessed as reduction in STAT3 level incubated for 20 hrs by Western blot analysis; type: cell-based
[2] = biological target: T1, Protein cereblon/Signal transducer and activator of transcription 3 (Homo sapiens, UniProt P40763+Q96SW2); assay: as §1; type: cell-based; details: dose <= 40.0 µM
[3] = Apparent volume of distribution in Sprague-Dawley rat at 5 mg/kg, iv; type: ADME, organism-based; details: in vivo, read-out: Vz
[4] = biological target: Signal transducer and activator of transcription 4 (Homo sapiens, UniProt Q14765); assay: Binding affinity to STAT4 (unknown origin) by FP assay
[5] = Drug concentration in female CB17 SCID mouse liver at 5 mg/kg, iv measured at 6 hrs by LC-MS/MS analysis; type: ADME, organism-based; details: read-out: Ct
[6] = Clearance in Beagle dog assessed as hepatic blood flow at 1 mg/kg, iv; type: ADME, organism-based, Canis lupus familiaris; details: in vivo
Cytochrome P450 2C19 = Cytochrome P450 2C19 (Homo sapiens, UniProt P33261); assay: Inhibition of CYP2C19 (unknown origin); type: ADME
[7] = biological target: T2, Protein cereblon/Signal transducer and activator of transcription 6 (Homo sapiens) (UniProt P42226+Q96SW2); assay: PROTAC activity at STAT6/CRBN in human Pfeiffer cells transfected with STAT3 K658R mutant assessed as reduction in STAT6 level upto 40 uM incubated for 20 hrs by Western blot analysis; type: cell-based
[8] = Antitumor activity against human MOLM16 cells xenografted in mouse assessed as tumor regression at 5 mg/kg, iv; type: functional, MOLM-16
[9] = Apparent permeability across apical to basolateral side in human Caco-2 cells; type: ADME, cell-based
[10] = biological target: Signal transducer and activator of transcription 1-alpha/beta (Homo sapiens) (UniProt P42224); assay: Binding affinity to STAT1 (unknown origin) assessed as maximum inhibition by FP assay relative to control
Cytochrome P450 3A4 = Cytochrome P450 3A4 (Homo sapiens, UniProt P08684); assay: Inhibition of CYP3A4 (unknown origin) using midazolam as substrate; type: ADME
[11] = Stability in mouse plasma assessed as half life; type: ADME, cell-free
Cytochrome P450 2C8 = Cytochrome P450 2C8 (Homo sapiens, UniProt P10632); assay: Inhibition of CYP2C8 (unknown origin); type: ADME
[12] = biological target: Protein cereblon/Signal transducer and activator of transcription 2 (Homo sapiens) (UniProt Q96SW2+P52630); assay: PROTAC activity at STAT2/CRBN in human PBMC cells assessed as reduction in STAT2 level upto 40 uM incubated for 20 hrs by Western blot analysis; type: cell-based
[13] = biological target: T2, Protein cereblon/Signal transducer and activator of transcription 6 (Homo sapiens); assay: PROTAC activity at STAT6/CRBN in human SU-DHL-1 cells assessed as reduction in STAT6 level incubated for 20 hrs by Western blot analysis; type: cell-based
[14] = Drug concentration in female CB17 SCID mouse plasma at 5 mg/kg, iv measured at 3 hrs by LC-MS/MS analysis; type: ADME, organism-based
[15] = biological target: Protein cereblon/Signal transducer and activator of transcription 3 (Mus musculus) (UniProt P42227+Q8C7D2); assay: In-vivo PROTAC activity at STAT3/CRBN in female CB17 SCID mouse assessed as STAT3 depletion liver at 5 mg/kg, iv measured at 1 hr by immunobloting analysis; type: functional, organism-based
[16] = Stability in dog plasma assessed as parent compound remaining at […]; type: ADME, cell-free, Canis lupus familiaris; details: read-out: Stability
[17] = biological target: T1, Protein cereblon/Signal transducer and activator of transcription 3; assay: PROTAC activity at STAT3/CRBN in human Pfeiffer cells transfected with STAT3 K658R mutant assessed as reduction in STAT3 level at 64 nM incubated for 20 hrs by Western blot analysis; type: cell-based; parameters: scale not given: the % may be the effect or the level left
SU-DHL-1 = assay: Antiproliferative activity against human SU-DHL-1 cells assessed as cell growth inhibition incubated for 4 days by celltiter-glo assay; type: functional, cell-based; details: SU-DHL-1, 96 h
[18] = Drug concentration in female CB17 SCID mouse spleen at 5 mg/kg, iv measured at 48 hrs by LC-MS/MS analysis; type: ADME, organism-based; details: read-out: Ct
[19] = Drug concentration in female CB17 SCID mouse liver at 5 mg/kg, iv measured at 48 hrs by LC-MS/MS analysis; type: ADME, organism-based; details: read-out: Ct
[20] = Drug concentration in female CB17 SCID mouse spleen at 5 mg/kg, iv measured at 24 hrs by LC-MS/MS analysis; type: ADME, organism-based; details: read-out: Ct
[21] = biological target: T1, Protein cereblon/Signal transducer and activator of transcription 3; assay: PROTAC activity at his-SUMO-tagged STAT3 (127 to 688 residues)/CRBN in human PBMC cells assessed as reduction in STAT3 level incubated for 20 hrs by Western blot analysis; type: cell-based
[22] = Antitumor activity against human MOLM16 cells xenografted in mouse assessed as tumor regression at 10 to 20 mg/kg, iv; type: functional, MOLM-16; details: dose 10-20 mg/kg
[23] = AUC (0 to t) in Sprague-Dawley rat at 5 mg/kg, iv; type: ADME, organism-based; details: in vivo
[24] = biological target: T2, Protein cereblon/Signal transducer and activator of transcription 6 (Homo sapiens); assay: PROTAC activity at STAT6/CRBN in human MOLM16 cells assessed as reduction in STAT6 level incubated for 4 hrs by Western blot analysis; type: cell-based
[25] = biological target: T1, Protein cereblon/Signal transducer and activator of transcription 3; assay: PROTAC activity at his-SUMO-tagged STAT3 (127 to 688 residues)/CRBN in human HeLa cells assessed as induction of STAT3 degradation incubated for 24 hrs by TECAN SPARK microplate reader analysis; type: cell-based
[26] = biological target: Protein cereblon/Signal transducer and activator of transcription 4 (Homo sapiens, UniProt Q96SW2+Q14765); assay: PROTAC activity at STAT4/CRBN in human MOLM16 cells assessed as reduction in STAT4 level incubated for 4 hrs by Western blot analysis; type: cell-based
[27] = Stability in Non human primate Hepatocyte assessed as half life; type: ADME, cell-based; details: hepatocytes
[28] = Plasma protein binding in human assessed as unbound fraction at 10 uM; type: ADME, cell-free
[29] = Drug concentration in female CB17 SCID mouse plasma at 5 mg/kg, iv measured at 72 hrs by LC-MS/MS analysis; type: ADME, organism-based
[30] = biological target: Protein cereblon/Signal transducer and activator of transcription 1-alpha/beta (Homo sapiens, UniProt P42224+Q96SW2); assay: PROTAC activity at STAT1/CRBN in human PBMC cells assessed as reduction in STAT1 level incubated for 20 hrs by Western blot analysis; type: cell-based
hERG (KCNH2) = hERG (KCNH2) (Homo sapiens, UniProt Q12809); assay: Inhibition of hERG at 30 uM relative to control; type: toxicity
[31] = Drug concentration in female CB17 SCID mouse plasma at 5 mg/kg, iv measured at 6 hrs by LC-MS/MS analysis; type: ADME, organism-based
[32] = biological target: T1, Protein cereblon/Signal transducer and activator of transcription 3; assay: PROTAC activity at his-SUMO-tagged STAT3 (127 to 688 residues)/CRBN in human HeLa cells assessed as induction of STAT3 degradation incubated for 24 hrs by TECAN SPARK microplate reader analysis relative to control; type: cell-based

## COC(=O)N1CC[C@H]2CC[C@@H](C(=O)N[C@@H](CCC(N)=O)C(=O)N[C@@H](Cc3ccc(F)c(F)c3)C(=O)N3CCC(CCC#Cc4cccc5c4CN(C4CCC(=O)NC4=O)C5=O)CC3)N2C(=O)[C@@H](NC(=O)c2cc3cc(C(F)(F)P(=O)(O)O)ccc3s2)C1 (stereo partly drawn)
[1]
  DC50: 2.5 nM
[2]
  Activity: Dose-dependent-effect
[3]
  Vd: 0.12 L/kg
[4]
  IC50: 360 nM
[5]
  concentration at 6 h: 3570 ng/g
[6]
  QH: 2.7%
Cytochrome P450 2C19
  IC50: > 10000 nM
[7]
  Activity: inactive
[8]
  Activity: 76%
[9]
  Papp: 0.14 10^-6 cm/s
[10]
  Imax: 100%
Cytochrome P450 3A4
  IC50: > 10000 nM
[11]
  t1/2: > 2 h
Cytochrome P450 2C8
  IC50: > 10000 nM
[12]
  Activity: inactive
[13]
  Activity: Active
[14]
  concentration at 3 h: 31200 ng/mL
[15]
  Activity: > 70%
[16]
  remaining at 2 h: 89%
[17]
  Activity: > 90%
SU-DHL-1
  IC50: 430 nM
[18]
  concentration at 48 h: 615 ng/g
[19]
  concentration at 48 h: 1130 ng/g
[20]
  concentration at 24 h: 868 ng/g
[21]
  DC50: 0.1 nM
[21]; dose 0.1-4000 nM
  Activity: Dose-dependent-effect
[22]
  Activity: 100%
[23]
  AUC(0-t): 59500 ng·h/mL
[24]
  Activity: inactive
[25]
  DC50: 500 nM
[26]
  Activity: inactive
[27]
  half-life: > 2 h
[28]
  Fu: 0.5%
[29]
  concentration at 72 h: 8430 ng/mL
[30]
  DC50: 1600 nM
hERG (KCNH2)
  inhibition at 30 µM: 1.1%
[31]
  concentration at 6 h: 30300 ng/mL
[32]
  Emax: 84%
